The record followed here is the NIST ThermoML archive (doi:10.1021/acs.jced.9b00854).

A short description of data set [1]: Molar enthalpy of transition or fusion. As to conditions: Crystal; DSC.
For data set [2] the following is noted: Crystal.

Structures are written as SMILES. ± gives the expanded uncertainty stated by the source.

Usually mass density stands for mass per unit of volume. Turning to `CCNC(=S)NCC` [N,N'-diethylthiourea], the “Molar enthalpy of transition or fusion” value in data set [1] is 15.7 ± 0.86 kJ/mol. Further, the mass density in data set [2] (293 K, 101.33 kPa, X-ray diffraction) is listed as 1120 ± 5.8 kg/m3. Also, the Triple point temperature in data set [2] (DSC) was found to be 351.28 ± 0.87 K.
